In experiment [1] the test system is KLK2 mRNA. Description: qRT-PCR of KLK2 mRNA in 22RV1 cells. Format: cell-based, Human. As to conditions: 22RV1 cells treated overnight, normalized to beta-actin. As for the experimental part: FIGS. 4C-4D are graphs showing the effect of Y1830, RG (or the fraction comprising RG) and RGA (or the fraction comprising RGA) on the mRNA of PSA (FIG. 4C) and KLK2 (FIG. 4D). 22RV1 cells were treated with Y1830, RGA or RG overnight and mRNA was extracted for qRT-PCR to determine the mRNA expression level of PSA and KLK2 as normalized to beta-actin.
(§1) RNA was extracted from herb treated cells using the Roche High Pure RNA isolation kit. cDNA was then generated from RNA samples using a Bio-rad iScript Advanced cDNA synthesis kit for RT-qPCR. qPCR was performed using human NRF2, H01, NQO1 and β-actin primers (Table 1) and iTaq™ Universal SYBR® Green Supermix in a CFX PCR machine (Bio-rad). Relative mRNA expression was calculated based on the change of the threshold cycle relative to the internal control, β-actin, using a standard curve generated by purified PCR products.
A general note: In qPCR the cycle at which signal appears reflects the starting amount.

Experiment [2] concerns MCF7 cells. Description: Cell growth assay, MCF7 breast cancer cells. The experiment is classed as cell-based. As to conditions: in the presence or absence of E2, 4 days. On the procedure: (§2) MCF7, T47D, MDA-MB-453, MDA-MB-231 breast cancer cells were grown in corning T75 cell culture flask in RPMI1640 medium supplemented with 5% FBS, 50 μg/ml Kanamycin in a 37° C., 5% CO2 incubator.
(§3) 20,000 cells in 1 ml of medium (phenol red free RPMI1640, 5% charcoal-dialysis FBS, 50 μg/ml Kanamyacin) were seeded per well of a 24-well plate and incubated in a 37° C. incubator with 5% CO2 overnight. Different concentrations of herbal extract were added to each well in order to have final concentrations from 50 μg/ml to 500 μg/ml. For prostate cancer cells, DHT (25 nM) was used to stimulate androgen receptor activity. For glucocorticoid receptor overexpressed LNCaP cells, dexamethasone (50 nM) was used to stimulate glucocorticoid receptor activity. For all breast cancer cells, E2 (10 nM) was used to stimulate ER activity. Control medium without any steroid hormone was used as a control setting. After 4 days of incubation, cells were fixed and stained for 2 h with 0.5% methylene blue in 50% ethanol, followed by washing with tap water to remove unbound dye. Plates were air dried and then cells were dissolved in 1% sarkosyl (sodium lauroyl sarcosinate) by shaking at room temperature for 3 h. Cell growth was quantified based on the amount of methylene blue adsorbed by the cells as measured by a spectrophotometer (Molecular Devices) at 595 nm. […]

The subject of experiment [3] is SGK1 mRNA (target gene of GR). Put plainly: qRT-PCR of DEX induced SGK1 mRNA. Format: cell-based. As to conditions: 22RV1 or PC3 cells.
Description: FIGS. 5D-5E are graphs showing the effect of Y1830, RG (or the fraction comprising RG), and RGA (or the fraction comprising RGA) on the DEX induced glucocorticoid receptor mediated transcriptional response of 22RV1 and PC3 PSA-luciferase reporter cells. FIGS. 5F-5G are graphs showing the effect of Y1830 on SGK1 (target gene of GR) mRNA expression with or without DEX using qRT-PCR.
as §1

Experiment [4] concerns the target T1, GR (stimulated with DEX) (Homo sapiens, UniProt P04150).
T1 construct: expressed in transfected cells; host or cells: LNCaP (LNCaP-GR)
Put plainly: GR driven luciferase activity (DEX) in LNCaP-GR cells. The experiment is classed as cell-based. As to conditions: LNCaP-GR luciferase reporter cells. On the procedure: Both LNCaP and GR overexpressing LNCaP cells were carrying luciferase reporters with AR response elements.
Reporter cells were treated with herbal extracts at 30, 100, 300, and 1000 μg/ml for 24 h in a 37° C.-CO2 incubator. DHT (25 nM) was used to stimulate androgen receptor activity. Dexamethasone (50 nM) was used to stimulate glucocorticoid receptor activity Cells were lysed using luciferase lysis buffer after which luciferase buffer with luciferin was added to generate luminescence. Luminescence was recorded using a luminescence microplate reader.
In general terms: A reporter such as luciferase makes a cellular process visible.

Experiment [5] has as its system histone 2AX serine 139 phosphorylation. Put plainly: Western blot, MCF7 cells, H2AX-ser139. Format: cell-based. As to conditions: presence or absence of E2, 24 h. On the procedure:
Western blot analysis was used to determine the protein expression using protein specific antibodies.
Total cell lysis was conducted using 2×SDS sample buffer (62.5 mM Tris-HCl, 2% SDS, 10% glycerol, 50 mM DTT, and 0.05% bromophenol blue). The samples were sonicated for 10 s to shear DNA. Cell nuclei were isolated using Tris buffer saline with 0.4% NP40. Cell extracts were then electrophoresed through 10% SDS-polyacrylamide gels and transferred to 0.2 μm nitrocellulose membranes (Bio-Rad Laboratories, Hercules, Calif.) with a Miniprotein II transferring apparatus (Bio-Rad). The membranes were blocked and probed in TBS-T buffer (1×TBS buffer, 0.2% Tween 20) containing 5% non-fat milk. Monoclonal rabbit anti-AR (1:5000), was used to detect androgen receptor (Abcam #133273), Glucocorticoid Receptor (D8H2) XP® Rabbit mAb #3660, ERa Antibody (F-10): sc-8002, BRD4 (E2A7X) Rabbit mAb #13440, Brd2 (D89B4) Rabbit mAb #5848, PARP (46D11) Rabbit mAb #9532, Acetyl-Histone H3 (Lys27) (D5E4) XP® Rabbit mAb #8173 and a monoclonal actin antibody diluted 1:2500 (Sigma, St. Louis, Mo.) was used to detect β-actin as the internal control to confirm equal protein loading. […] Enhanced chemiluminescence reagents (Perkin-Elmer Life Science Products, Boston, Mass.) were used to visualize the immunoreactive bands and the densities of protein bands were scanned analyzed using ImageJ software from the NIH.
(In general: In western blotting, separated proteins are transferred to a membrane and probed.)

In experiment [6] the test system is Brd2. Description: Western blot, MCF7 and 22RV1 cells, Brd2. The experiment is classed as cell-based. As to conditions: MCF7 (with or without E2) or 22RV1 (with or without DHT), 24 h. As for the experimental part:
(§4) Western blot analysis was used to determine the protein expression using protein specific antibodies. β-actin or histone 3 was used to normalize protein loading.
(§5) Total cell lysis was conducted using 2×SDS sample buffer (62.5 mM Tris-HCl, 2% SDS, 10% glycerol, 50 mM DTT, and 0.05% bromophenol blue). The samples were sonicated for 10 s to shear DNA. Cell nuclei were isolated using Tris buffer saline with 0.4% NP40. Cell extracts were then electrophoresed through 10% SDS-polyacrylamide gels and transferred to 0.2 μm nitrocellulose membranes (Bio-Rad Laboratories, Hercules, Calif.) with a Miniprotein II transferring apparatus (Bio-Rad). The membranes were blocked and probed in TBS-T buffer (1×TBS buffer, 0.2% Tween 20) containing 5% non-fat milk. […] Enhanced chemiluminescence reagents (Perkin-Elmer Life Science Products, Boston, Mass.) were used to visualize the immunoreactive bands and the densities of protein bands were scanned analyzed using ImageJ software from the NIH.

Experiment [7] relates to H3K9 acetylation. Put plainly: Western blot, MCF7 and 22RV1 cells, H3K9 acetylation. The experiment is classed as cell-based. As to conditions: MCF7 and 22RV1 cells (FIGS. 11A-11B), 24 h. On the procedure:
as §4, §5

Experiment [8] deals with T4D cells. Description: Cell growth assay, T4D breast cancer cells. The experiment is classed as cell-based. As to conditions: under E2 stimulation, 4 days. As for the experimental part:
as §2, §3

T1 sequence (P04150 whole entry): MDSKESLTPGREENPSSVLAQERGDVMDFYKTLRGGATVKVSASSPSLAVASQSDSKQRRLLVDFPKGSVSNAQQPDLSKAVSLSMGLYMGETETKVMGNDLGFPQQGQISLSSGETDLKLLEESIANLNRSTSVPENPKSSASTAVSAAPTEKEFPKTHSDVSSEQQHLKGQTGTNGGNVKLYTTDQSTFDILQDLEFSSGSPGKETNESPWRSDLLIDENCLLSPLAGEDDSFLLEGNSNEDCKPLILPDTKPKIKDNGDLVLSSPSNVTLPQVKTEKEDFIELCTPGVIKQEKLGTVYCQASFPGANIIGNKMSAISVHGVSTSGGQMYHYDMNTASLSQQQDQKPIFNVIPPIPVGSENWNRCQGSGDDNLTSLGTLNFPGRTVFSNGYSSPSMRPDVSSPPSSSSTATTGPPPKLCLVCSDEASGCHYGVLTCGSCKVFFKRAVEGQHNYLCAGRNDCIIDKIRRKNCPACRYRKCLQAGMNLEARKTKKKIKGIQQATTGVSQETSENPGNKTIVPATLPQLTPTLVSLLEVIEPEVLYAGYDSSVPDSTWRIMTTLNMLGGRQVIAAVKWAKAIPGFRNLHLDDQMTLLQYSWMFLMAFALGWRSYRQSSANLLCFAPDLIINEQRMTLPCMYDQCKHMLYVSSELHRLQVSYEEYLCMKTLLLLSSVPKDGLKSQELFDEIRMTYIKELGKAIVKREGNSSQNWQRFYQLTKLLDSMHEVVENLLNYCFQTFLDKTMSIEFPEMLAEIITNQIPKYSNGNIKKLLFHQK

Regarding `Cc1c(OC2OC(CO)C(O)C(O)C2OC2OC(C)C(O)C(O)C2O)cc2c(c1O)C(=O)c1ccc(O)cc1C2=O` [RG, 1,3,6-Trihydroxy-2-methyl-9,10-anthracenedione 3-O-[α-L-Rhamnopyranosyl-(1→2)-β-D-glucopyranoside]], in experiment [1], the “inhibition of mRNA expression of KLK2” value is listed as “did not demonstrate this level of activity”. For the same compound, the “inhibition on the growth of MCF7 cells” value in experiment [2] is “very weak growth inhibition”.

Regarding `CC(=O)OCC1OC(Oc2cc3c(c(O)c2C)C(=O)c2ccc(O)cc2C3=O)C(OC2OC(C)C(O)C(O)C2O)C(O)C1O` [RGA, 1,3,6-Trihydroxy-2-methyl-9,10-anthracenedione 3-O-[α-L-Rhamnopyranosyl-(1→2)-6-O-acetyl-β-D-glucopyranoside]], in experiment [3], the “inhibition of DEX induced SGK1 mRNA expression” value is given as “inhibited”. The “inhibition of DEX induced transcriptional response” value in experiment [4] was “effectively inhibit”. In addition, the “histone 2AX serine 139 phosphorylation” value in experiment [5] is on record as “triggered”. Further, the Brd2 protein expression entry in experiment [6] is “decreased”. In addition, in experiment [7], the H3K9 acetylation result is “did not have a large impact”. In experiment [8], the “inhibitory effect on T4D cell growth” value is “strong inhibitory effect”.

Values taken from patent publication US20210196779A1, “Compositions and Methods for Treating Steroid Hormone-Related Diseases or Disorders” (YALE UNIVERSITY, priority 2018, published 2021).
